Key:
5-HT2a = biological target: T1, 5-HT2a (Homo sapiens, UniProt P28223); assay: Radioligand binding, 5-HT receptor family: 5-HT2a ([3H]Ketanserin); settings: CHO-K1 human recombinant receptor, [3H]Ketanserin 1 nM; read-out: Binding affinity, IC50 (nM), 5-HT2a
T1 construct: purchased Euroscreen/BioSignal Packard Inc

[1] = biological target: Human serotonin 5-HT6 receptor (Homo sapiens, UniProt P50406); assay: [3H]LSD binding assay on cloned 5-HT6 receptor; settings: IC50 (nM)
5-HT7 = biological target: T2, 5-HT7 (Homo sapiens, UniProt P34969); assay: Radioligand binding, 5-HT receptor family: 5-HT7 ([3H]LSD); settings: CHO-K1 human recombinant receptor, [3H]LSD 3 nM; read-out: Binding affinity, IC50 (nM), 5-HT7
T2 construct: purchased Euroscreen/BioSignal Packard Inc
Description: Radioligand bindings were performed according to the test method provided by the supplier of receptor membrane (Euroscreen/BioSignal Packard Inc.). The detailed assay conditions and the results were shown in the following Table 3 and Table 4, respectively.

hD4.2 receptor = biological target: T3, hD4.2 receptor (Homo sapiens, UniProt P21917, DEL265-296); assay: Dopamine receptor family binding: D4 ([3H]YM-09151-2); settings: [3H]YM-09151-2 0.06 nM; read-out: Binding affinity, IC50 (nM), D4
T3 construct: purchased BioSignal Packard Inc., Montreal, Canada
T3 sequence (P21917 with tags, fused parts or gaps DEL265-296): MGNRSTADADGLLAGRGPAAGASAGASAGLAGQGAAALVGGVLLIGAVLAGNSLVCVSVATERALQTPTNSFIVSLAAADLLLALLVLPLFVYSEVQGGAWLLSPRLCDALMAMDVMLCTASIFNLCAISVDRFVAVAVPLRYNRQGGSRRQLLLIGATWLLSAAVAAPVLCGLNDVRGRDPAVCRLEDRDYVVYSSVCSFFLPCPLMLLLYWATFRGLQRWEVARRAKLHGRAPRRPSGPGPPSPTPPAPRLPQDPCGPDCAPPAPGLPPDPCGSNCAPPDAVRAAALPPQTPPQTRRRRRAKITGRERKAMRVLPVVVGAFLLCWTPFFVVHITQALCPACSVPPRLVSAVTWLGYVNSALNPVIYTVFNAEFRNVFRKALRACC
Description: (§1) 2-2: Binding Assays of Dopamine Receptor Family
(§2) The radioligands used were [^3H]spiperone (for hD2L and hD3 receptors, 1 nM) and [^3H] YM-09151-2 (for hD4.2 receptor, 0.06 nM). Radioligand bindings were performed by the protocols provided by the supplier of receptor membranes (BioSignal Packard Inc., Montreal, Canada). Briefly, the buffer used in D2 or D3 receptor binding assay was 50 mM Tris-HCl (pH 7.4), 10 mM MgCl2, 1 mM EDTA, or 50 mM Tris-HCl (pH 7.4), 5 mM MgCl2 5 mM EDTA, 5 mM KCl, 1.5 mM CaCl2, 120 mM NaCl, respectively. In [^3H] YM-09151-2 receptor binding assays, the buffer containing 50 mM Tris-HCl (pH 7.4), 5 mM MgCl2, 5 mM EDTA, 5 mM KCl and 1.5 mM CaCl2 was used. […] Competition binding studies were carried out with 7-8 concentrations of the test compound run in duplicate tubes, and isotherms from three assays were calculated by computerized nonlinear regression analysis (GraphPad Prism Program, San Diego, […]) to yield median inhibitory concentration (IC50) values.

hD2L receptor = biological target: T4, hD2L receptor (Homo sapiens, UniProt P14416); assay: Dopamine receptor family binding: D2 ([3H]spiperone); settings: [3H]spiperone 1 nM; read-out: Binding affinity, IC50 (nM), D2
T4 construct: purchased BioSignal Packard Inc., Montreal, Canada
Description: as §1, §2

5-HT1a = biological target: T5, 5-HT1a (Homo sapiens, UniProt P08908); assay: Radioligand binding, 5-HT receptor family: 5-HT1a ([3H]8-OH-DPAT); settings: CHO-K1 human recombinant receptor, [3H]8-OH-DPAT 0.5 nM; read-out: Binding affinity, IC50 (nM), 5-HT1a
T5 construct: purchased Euroscreen/BioSignal Packard Inc
T5 sequence (P08908 1-422): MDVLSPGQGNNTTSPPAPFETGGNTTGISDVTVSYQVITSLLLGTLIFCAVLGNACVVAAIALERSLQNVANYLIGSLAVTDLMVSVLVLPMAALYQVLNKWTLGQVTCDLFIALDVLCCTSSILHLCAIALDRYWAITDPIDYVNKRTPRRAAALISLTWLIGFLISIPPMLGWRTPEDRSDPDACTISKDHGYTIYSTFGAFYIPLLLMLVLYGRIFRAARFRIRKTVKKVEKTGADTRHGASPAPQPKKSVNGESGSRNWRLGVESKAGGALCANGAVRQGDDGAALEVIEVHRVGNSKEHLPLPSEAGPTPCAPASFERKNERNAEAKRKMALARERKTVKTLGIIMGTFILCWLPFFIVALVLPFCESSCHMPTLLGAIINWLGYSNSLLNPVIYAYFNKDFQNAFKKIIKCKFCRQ

5-HT2c = biological target: T6, 5-HT2c (Homo sapiens, UniProt P28335); assay: Radioligand binding, 5-HT receptor family: 5-HT2c ([3H]Mesulergine); settings: CHO-K1 human recombinant receptor, [3H]Mesulergine 1 nM; read-out: Binding affinity, IC50 (nM), 5-HT2c
T6 construct: purchased Euroscreen/BioSignal Packard Inc
T6 sequence (P28335 33-458): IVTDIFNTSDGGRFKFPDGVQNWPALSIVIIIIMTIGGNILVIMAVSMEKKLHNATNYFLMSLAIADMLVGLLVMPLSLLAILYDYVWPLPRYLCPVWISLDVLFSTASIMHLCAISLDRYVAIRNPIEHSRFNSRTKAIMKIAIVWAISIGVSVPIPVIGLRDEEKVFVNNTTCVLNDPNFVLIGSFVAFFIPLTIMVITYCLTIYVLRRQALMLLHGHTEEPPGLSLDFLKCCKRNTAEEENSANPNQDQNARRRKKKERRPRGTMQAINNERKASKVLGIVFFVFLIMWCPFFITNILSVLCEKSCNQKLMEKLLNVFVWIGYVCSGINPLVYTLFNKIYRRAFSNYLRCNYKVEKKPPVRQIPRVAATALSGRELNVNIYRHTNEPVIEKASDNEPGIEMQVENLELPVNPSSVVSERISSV

hD3 receptor = biological target: T7, hD3 receptor (Homo sapiens, UniProt P35462); assay: Dopamine receptor family binding: D3 ([3H]spiperone); settings: [3H]spiperone 1 nM; read-out: Binding affinity, IC50 (nM), D3
T7 construct: purchased BioSignal Packard Inc., Montreal, Canada

D1 = D1 (Homo sapiens, UniProt P21728); assay: Dopamine receptor family binding: D1; settings: read-out: Binding affinity, IC50 (nM), D1
[2] = Binding affinity, 5-HT6, Table 4
[3] = binding affinity to the 5-HT6 receptor, Table 2, 1.87 nM [3H]LSD, cloned human receptor membranes from Sf21 cells, 37° C. 60 min

T7 sequence (P35462 whole entry): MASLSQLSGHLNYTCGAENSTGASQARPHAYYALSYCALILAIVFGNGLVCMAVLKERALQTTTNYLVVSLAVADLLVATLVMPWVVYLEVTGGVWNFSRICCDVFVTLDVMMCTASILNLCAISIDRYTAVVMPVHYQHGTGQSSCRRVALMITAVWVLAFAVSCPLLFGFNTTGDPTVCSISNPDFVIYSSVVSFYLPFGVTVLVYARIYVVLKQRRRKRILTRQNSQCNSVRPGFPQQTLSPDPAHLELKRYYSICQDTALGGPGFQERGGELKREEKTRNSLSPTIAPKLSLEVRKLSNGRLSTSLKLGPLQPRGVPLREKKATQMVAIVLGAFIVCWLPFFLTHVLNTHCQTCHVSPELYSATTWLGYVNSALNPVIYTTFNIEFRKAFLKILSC
T2 sequence (P34969 whole entry): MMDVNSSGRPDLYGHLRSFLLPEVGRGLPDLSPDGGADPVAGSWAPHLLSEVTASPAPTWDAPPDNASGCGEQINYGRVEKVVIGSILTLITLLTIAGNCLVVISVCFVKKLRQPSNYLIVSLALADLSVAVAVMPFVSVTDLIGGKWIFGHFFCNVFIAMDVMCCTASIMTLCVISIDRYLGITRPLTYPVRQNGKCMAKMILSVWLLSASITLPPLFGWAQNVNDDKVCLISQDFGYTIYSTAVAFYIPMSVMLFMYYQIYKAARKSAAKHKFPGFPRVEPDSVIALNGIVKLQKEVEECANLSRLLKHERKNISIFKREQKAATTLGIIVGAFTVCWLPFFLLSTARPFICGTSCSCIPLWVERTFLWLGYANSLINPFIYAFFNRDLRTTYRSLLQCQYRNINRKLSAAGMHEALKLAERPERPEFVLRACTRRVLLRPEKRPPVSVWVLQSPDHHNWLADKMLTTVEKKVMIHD
Chain of Human serotonin 5-HT6 receptor (P50406 whole entry): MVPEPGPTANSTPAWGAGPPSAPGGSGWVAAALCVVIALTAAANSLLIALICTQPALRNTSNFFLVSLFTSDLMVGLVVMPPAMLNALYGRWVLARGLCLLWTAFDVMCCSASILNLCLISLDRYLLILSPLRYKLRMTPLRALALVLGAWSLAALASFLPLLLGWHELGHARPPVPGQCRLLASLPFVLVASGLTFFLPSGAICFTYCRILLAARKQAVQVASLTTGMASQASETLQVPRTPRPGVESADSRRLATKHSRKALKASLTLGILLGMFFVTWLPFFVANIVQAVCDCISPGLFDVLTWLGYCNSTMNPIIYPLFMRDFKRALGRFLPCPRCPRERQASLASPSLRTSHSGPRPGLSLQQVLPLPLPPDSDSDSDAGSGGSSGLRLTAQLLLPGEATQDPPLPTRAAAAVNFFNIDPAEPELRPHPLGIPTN
T1 sequence (P28223 whole entry): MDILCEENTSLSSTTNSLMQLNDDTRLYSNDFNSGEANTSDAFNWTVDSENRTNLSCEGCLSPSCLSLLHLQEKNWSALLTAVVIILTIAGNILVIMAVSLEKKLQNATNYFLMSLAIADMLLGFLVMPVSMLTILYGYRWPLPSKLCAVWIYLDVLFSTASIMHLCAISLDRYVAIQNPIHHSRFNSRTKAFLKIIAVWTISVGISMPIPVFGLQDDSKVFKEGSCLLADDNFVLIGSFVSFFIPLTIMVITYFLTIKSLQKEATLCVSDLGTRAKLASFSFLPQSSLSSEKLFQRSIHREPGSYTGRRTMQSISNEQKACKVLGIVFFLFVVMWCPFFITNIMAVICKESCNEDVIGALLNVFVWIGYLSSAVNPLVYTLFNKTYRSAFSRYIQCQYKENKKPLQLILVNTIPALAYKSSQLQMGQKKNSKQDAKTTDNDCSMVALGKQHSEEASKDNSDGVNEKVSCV
T4 sequence (P14416 whole entry): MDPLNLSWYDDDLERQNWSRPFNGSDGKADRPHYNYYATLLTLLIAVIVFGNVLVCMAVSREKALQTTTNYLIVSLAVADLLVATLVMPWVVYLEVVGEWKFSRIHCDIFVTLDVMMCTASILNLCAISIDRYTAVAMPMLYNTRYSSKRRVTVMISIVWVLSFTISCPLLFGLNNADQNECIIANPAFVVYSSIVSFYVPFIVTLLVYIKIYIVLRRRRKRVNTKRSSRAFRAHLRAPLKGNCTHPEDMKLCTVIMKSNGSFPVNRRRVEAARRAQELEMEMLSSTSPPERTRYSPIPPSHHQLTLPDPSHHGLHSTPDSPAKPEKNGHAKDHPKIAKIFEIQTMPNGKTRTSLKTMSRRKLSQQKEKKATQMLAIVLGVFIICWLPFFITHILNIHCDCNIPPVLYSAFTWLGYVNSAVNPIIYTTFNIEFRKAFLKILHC
Chain of D1 (P21728 whole entry): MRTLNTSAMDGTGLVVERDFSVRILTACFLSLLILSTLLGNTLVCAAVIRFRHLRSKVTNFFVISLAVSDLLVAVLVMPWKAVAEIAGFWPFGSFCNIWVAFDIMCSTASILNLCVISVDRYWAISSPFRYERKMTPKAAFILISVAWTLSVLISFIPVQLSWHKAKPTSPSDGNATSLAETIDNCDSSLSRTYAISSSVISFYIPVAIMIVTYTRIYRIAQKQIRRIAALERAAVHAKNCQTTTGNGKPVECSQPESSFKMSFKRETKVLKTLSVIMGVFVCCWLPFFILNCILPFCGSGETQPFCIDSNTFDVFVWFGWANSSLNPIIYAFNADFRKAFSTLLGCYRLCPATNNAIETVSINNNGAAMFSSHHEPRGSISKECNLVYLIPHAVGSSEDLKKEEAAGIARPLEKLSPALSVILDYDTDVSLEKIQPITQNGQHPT

## CN1CCN(c2cc(Cl)cc3c2S(=O)(=O)N(Cc2ccccc2F)C(=O)N3Cc2ccccc2)CC1 [Example 2, 4-Benzyl-6-chloro-2-(2-fluoro-benzyl)-8-(4-methyl-piperazin-1-yl)-1,1-dioxo-1,4-dihydro-2H-1λ^6-benzo[1,2,4]thiadiazin-3-one]
5-HT2a
  IC50: 335 nM
[1]; [2]
  IC50: 1.9 nM
[1]; [3]
  IC50: 1.9 nM
5-HT7
  IC50: > 10000 nM
hD4.2 receptor
  IC50: > 10000 nM
hD2L receptor
  IC50: > 10000 nM
5-HT1a
  IC50: 2300 nM
5-HT2c
  IC50: 578 nM
hD3 receptor
  IC50: 390 nM
other
  melting point: 118 to 120 °C

## CN1CCN(c2cc(Cl)cc3c2S(=O)(=O)N(Cc2cccc(F)c2)C(=O)N3Cc2ccccc2)CC1 [Example 3, 4-Benzyl-6-chloro-2-(3-fluoro-benzyl)-8-(4-methyl-piperazin-1-yl)-1,1-dioxo-1,4-dihydro-2H-1λ^6-benzo[1,2,4]thiadiazin-3-one]
5-HT2a
  IC50: 846 nM
[1]; [2]
  IC50: 0.7 nM
[1]; [3]
  IC50: 0.7 nM
5-HT7
  IC50: > 10000 nM
hD4.2 receptor
  IC50: > 10000 nM
hD2L receptor
  IC50: > 10000 nM
5-HT1a
  IC50: 5980 nM
5-HT2c
  IC50: 2190 nM
hD3 receptor
  IC50: 537 nM
other
  melting point: 85 to 87 °C

## CN1CCN(c2cc(Cl)cc3c2S(=O)(=O)N(Cc2ccccc2Cl)C(=O)N3Cc2ccccc2)CC1 [Example 5, 4-Benzyl-6-chloro-2-(2-chloro-benzyl)-8-(4-methyl-piperazin-1-yl)-1,1-dioxo-1,4-dihydro-2H-1λ^6-benzo[1,2,4]thiadiazin-3-one]
5-HT2a
  IC50: 396 nM
[1]; [2]
  IC50: 1.3 nM
[1]; [3]
  IC50: 1.3 nM
5-HT7
  IC50: > 10000 nM
hD4.2 receptor
  IC50: > 10000 nM
hD2L receptor
  IC50: 5090 nM
5-HT1a
  IC50: 3010 nM
5-HT2c
  IC50: 240 nM
hD3 receptor
  IC50: 93 nM
other
  melting point: 132 to 133 °C

## CN1CCN(c2cc(Cl)cc3c2S(=O)(=O)N(Cc2ccc(Cl)cc2)C(=O)N3Cc2ccccc2)CC1 [Example 7, 4-Benzyl-6-chloro-2-(4-chloro-benzyl)-8-(4-methyl-piperazin-1-yl)-1,1-dioxo-1,4-dihydro-2H-1λ^6-benzo[1,2,4]thiadiazin-3-one]
5-HT2a
  IC50: 488 nM
[1]; [2]
  IC50: 2.3 nM
[1]; [3]
  IC50: 2.3 nM
5-HT7
  IC50: > 10000 nM
hD4.2 receptor
  IC50: > 10000 nM
hD2L receptor
  IC50: > 10000 nM
5-HT1a
  IC50: 3910 nM
5-HT2c
  IC50: 1540 nM
hD3 receptor
  IC50: 555 nM
other
  melting point: 99 to 100 °C

## COc1ccc(CN2C(=O)N(Cc3ccccc3)c3cc(Cl)cc(N4CCN(C)CC4)c3S2(=O)=O)cc1 [Example 18, 4-Benzyl-6-chloro-2-(4-methoxy-benzyl)-8-(4-methyl-piperazin-1-yl)-1,1-dioxo-1,4-dihydro-2H-1λ^6-benzo[1,2,4]thiadiazin-3-one]
5-HT2a
  IC50: 563 nM
[1]; [2]
  IC50: 3.6 nM
[1]; [3]
  IC50: 3.6 nM
5-HT7
  IC50: > 10000 nM
D1
  IC50: > 10000 nM
hD4.2 receptor
  IC50: > 10000 nM
hD2L receptor
  IC50: 6580 nM
5-HT1a
  IC50: 3420 nM
5-HT2c
  IC50: 990 nM
hD3 receptor
  IC50: 1220 nM
